“And” between values parts separate entries of the source, which are not always exact repeats. Equal values may be shown once. “Also recorded” adds a separate entry of the source.
How the values were obtained:
[1] = biological target: P[8] VP8* (BM13851) (Rotavirus A, UniProt P11193); assay: 2D 1H-15N HSQC NMR titration of P[8] VP8* with glycans; assay type: binding, human RV; details: for Kd: read-out: dissociation constant (Kd), PBS buffer, global fitting
Description: Chemical shift perturbations were followed by 2D ^1H-^15N HSQC for P[8] VP8*, P[8] mutants, and P[6] VP8* upon titration of each glycan ligand. NMR data were collected with samples in PBS buffer in 5-mm Shigemi NMR tubes on 600-MHz Bruker Avance III or 850-MHz Bruker Avance II NMR spectrometers equipped with conventional 5-mm HCN probes. Samples of 0.20 mM ^15N-labeled P[8] VP8* was titrated with LNDFH I at 0, 0.020, 0.040, 0.80, 1.00, 1.20, 1.40, 1.60, 2.00, 2.80, 3.60, 4.40, 5.00 mM. The same ratio of LNDFH I was titrated to each P[8] mutant as the titration of LNDFH I to wild type P[8]. Samples of 0.31 mM ^15N-labeled P[8] VP8* was titrated with Le^b tetra-saccharide at 0, 0.031, 0.15, 0.31, 0.62, 1.24, 2.49, 4.35, 5.60, 6.84, 7.78, 8.71, 9.33 mM. Samples of 0.24 mM ^15N-labeled P[6] VP8* was titrated with LNFP I at 0, 0.024, 0.12, 0.24, 0.48, 0.96, 1.93, 3.37, 4.34, 5.30, 6.03, 6.75, 7.23, 8.44 mM. Samples of 0.33 mM ^15N-labeled P[6] VP8* was titrated with LNT at 0, 0.033, 0.17, 0.33, 0.69, 1.34, 2.67, 4.68, 6.01, 7.35, 8.35 mM. Spectra were process with NMRPipe software and analyzed with SPARKY [69]. The chemical shift changes upon titration was determined by the following formula [71]: Δδobs=1/2[δH2+(α·δN2)],δH=δHfree−δHbound,δN=δNfree−δNbound . Where δH free and δH bound are the backbone amide hydrogen chemical shifts in the absence and presence of ligand, δN free and δN bound are the amide nitrogen chemical shifts in the free and bound state. The value of Euclidean weighting correction factor α was set to 0.14 [72]. Standard deviation σ of the Euclidean chemical shift change was calculated and threshold value was chosen from 1.5σ to 2.5σ for the VP8*-HBGA by balancing the specificity and sensitivity. Amino acids with chemical shifts greater than the threshold value were used to calculate the dissociation constants. Dissociation constants were obtained by fitting the following equation: Δδobs=Δδmax{([P]t+[L]t+Kd)−[([P]t+[L]t+Kd)^2−4[P]t[L]t]^1/2}/2Pt . Where [P]t and [L]t represent the total concentrations of protein and ligand, Δδobs is the change in the observed chemical shift from the free state, Δδmax is the maximum chemical shift change on saturation, Kd represents the dissociation constant.

[2] = test system: P[6] VP8*; assay: STD NMR of glycans with P[6] VP8*; assay type: binding, human RV; details: 283 K
Description: (§1) All STD NMR spectra were acquired in Shigemi Tubes (Shigemi, USA) on 600-MHz Bruker Avance III and 850-MHz Bruker Avance II NMR spectrometers equipped with conventional 5-mm HCN probes at 283 K with pulse sequence STDDIFFESGP.3. The NMR samples for P[8] VP8* were prepared as 46 μM P[8] VP8* with 2.3 mM LNDFHI (1:50 protein: ligand ratio), and 33 μM P[8] VP8* with 1.86 mM Le^b tetra-saccharide (1:56 protein: ligand ratio). The NMR samples for P[6] VP* were prepared as 46 μM P[6] with 4.6 mM LNT (1:100 protein: ligand ratio), and 46 μM P[6] with 2.3 mM LNT (1:50 protein: ligand ratio). A control sample was prepared as 40 μM GST with 2.0 mM LNDFHI (1:50 protein: ligand ratio). […] The protein resonances were saturated with a cascade of Gaussian-shaped pulses with a duration of 50 ms, with a total saturation time of 2 s and 4 s. The on resonance was chosen to selectively saturate only the proteins for each sample. […] The STD amplification factors were determined by the equation (ISTD/IO) × molar ratio, where I0 are the intensities of the signals in the reference spectrum, and ISTD are intensities that obtained by subtracting the on-resonance spectrum from the off-resonance spectrum. The normalized STD amplification percentage for epitope mapping was determined by dividing by the largest STD amplification factor for each ligand.

[3] = biological target: P[6] VP8* (BM11596) (Rotavirus A, UniProt D2DXN5); assay: 2D 1H-15N HSQC NMR titration of P[6] VP8* with glycans; assay type: binding, human RV
Description: Chemical shift perturbations were followed by 2D ^1H-^15N HSQC for P[8] VP8*, P[8] mutants, and P[6] VP8* upon titration of each glycan ligand. NMR data were collected with samples in PBS buffer in 5-mm Shigemi NMR tubes on 600-MHz Bruker Avance III or 850-MHz Bruker Avance II NMR spectrometers equipped with conventional 5-mm HCN probes. Samples of 0.20 mM ^15N-labeled P[8] VP8* was titrated with LNDFH I at 0, 0.020, 0.040, 0.80, 1.00, 1.20, 1.40, 1.60, 2.00, 2.80, 3.60, 4.40, 5.00 mM. The same ratio of LNDFH I was titrated to each P[8] mutant as the titration of LNDFH I to wild type P[8]. Samples of 0.31 mM ^15N-labeled P[8] VP8* was titrated with Le^b tetra-saccharide at 0, 0.031, 0.15, 0.31, 0.62, 1.24, 2.49, 4.35, 5.60, 6.84, 7.78, 8.71, 9.33 mM. Samples of 0.24 mM ^15N-labeled P[6] VP8* was titrated with LNFP I at 0, 0.024, 0.12, 0.24, 0.48, 0.96, 1.93, 3.37, 4.34, 5.30, 6.03, 6.75, 7.23, 8.44 mM. Samples of 0.33 mM ^15N-labeled P[6] […] Spectra were process with NMRPipe software and analyzed with SPARKY [69]. The chemical shift changes upon titration was determined by the following formula [71]: Δδobs=1/2[δH2+(α·δN2)],δH=δHfree−δHbound,δN=δNfree−δNbound . […] Standard deviation σ of the Euclidean chemical shift change was calculated and threshold value was chosen from 1.5σ to 2.5σ for the VP8*-HBGA by balancing the specificity and sensitivity. […]

[4] = test system: P[8] VP8*; assay: STD NMR of glycans with P[8] VP8*; assay type: binding, human RV; details: 283 K; 1:50 or 1:56 protein:ligand
Description: as §1

[5] = test system: H177A-P[8] VP8* mutant; assay: HSQC NMR titration of H177A-P[8] mutant with LNDFH I; assay type: binding, human RV; details: same ligand ratio as wild type P[8]
Description: (§2) The VP8* core fragments (amino acids 64 to 223) of the human RV P[8] (BM13851) and P[6] (BM11596) with an N-terminal glutathione S-transferase (GST) tag was overexpressed in Escherichia coli BL21 (DE3) cells as previously described. The P[8] T78A, D79A, K168A, R154A, H177A, and D186A mutations were generated through overlap-extension site mutagenesis, and the sequences were confirmed at the Center for Bioinformatics and Functional Genomics (CBFG) at Miami University. Cells were grown in 1L Luria broth (LB) medium supplemented with 100 μg mL^-1 ampicillin at 310 K. When the OD600 reached 0.8, 0.5 mM isopropyl-β-D-thiogalactopyranoside was added to the medium to induce protein expression. The cell pellet was harvested within 12 h after induction and re-suspended in the phosphate-buffered saline (PBS) buffer (140 mM NaCl, 2.7 mM KCl, 10 mM Na2HPO4, 1.8 mM KH2PO4, pH 7.3). […]
(§3) Chemical shift perturbations were followed by 2D ^1H-^15N HSQC for P[8] […] Spectra were process with NMRPipe software and analyzed with SPARKY [69]. The chemical shift changes upon titration was determined by the following formula [71]: Δδobs=1/2[δH2+(α·δN2)],δH=δHfree−δHbound,δN=δNfree−δNbound . […] Standard deviation σ of the Euclidean chemical shift change was calculated and threshold value was chosen from 1.5σ to 2.5σ for the VP8*-HBGA by balancing the specificity and sensitivity. […]

[6] = test system: glutathione S-transferase (GST); assay: STD NMR negative control with GST; assay type: binding; details: 40 μM GST with 2.0 mM ligand
Description: as §1

[7] = test system: K168A-P[8] VP8* mutant; assay: HSQC NMR titration of K168A-P[8] mutant with LNDFH I; assay type: binding, human RV; details: same ligand ratio as wild type P[8]
Description: as §2, §3

[8] = test system: R154A-P[8] VP8* mutant; assay: HSQC NMR titration of R154A-P[8] mutant with LNDFH I; assay type: binding, human RV; details: same ligand ratio as wild type P[8]
Description: as §2, §3

[9] = test system: D186A-P[8] VP8* mutant; assay: HSQC NMR titration of D186A-P[8] mutant with LNDFH I; assay type: binding, human RV; details: same ligand ratio as wild type P[8]
Description: as §2, §3

[10] = test system: D79A-P[8] VP8* mutant; assay: HSQC NMR titration of D79A-P[8] mutant with LNDFH I; assay type: binding, human RV; details: same ligand ratio as wild type P[8]
Description: as §2, §3

[11] = test system: T78A-P[8] VP8* mutant; assay: HSQC NMR titration of T78A-P[8] mutant with LNDFH I; assay type: binding, human RV; details: same ligand ratio as wild type P[8]
Description: as §2, §3

[12] = test system: P[8] VP8*; set-up: method as in PMID 31226167; details: cited from earlier work

SMILES | binding to P[6] VP8* by STD NMR [2] | Kd [3] | Kd [1] | binding to P[8] VP8* by STD NMR [4] | other results
CC(=O)NC1C(OC2C(O)C(CO)OC(OC3C(CO)OC(O)C(O)C3O)C2O)OC(CO)C(O)C1OC1OC(CO)C(O)C(O)C1O (stereo not drawn) [LNT, lacto-N-tetraose] | bound | 2.5 ± 0.2 mM |  |  | binding to P[8] VP8* in HSQC titration [1]: little binding signal; also recorded: did not recognize
CC(=O)NC1C(O)OC(CO)C(OC2OC(C)C(O)C(O)C2O)C1OC1OC(CO)C(O)C(O)C1OC1OC(C)C(O)C(O)C1O (stereo not drawn) [Le^b tetra-saccharide, Fucα1-2Galβ1–3[Fucα1–4]GlcNAc] |  |  | 20.3 ± 4.8 mM | found to bind | 
CC(=O)NC1C(OC2C(O)C(CO)OC(OC3C(CO)OC(O)C(O)C3O)C2O)OC(CO)C(O)C1OC1OC(CO)C(O)C(O)C1OC1OC(C)C(O)C(O)C1O (stereo not drawn) [LNFP I, lacto-N-fucopentaose I] | bound | 13.6 ± 1.7 mM | 23.5 mM |  | 
CC(=O)NC1C(OC2C(O)C(CO)OC(OC3C(CO)OC(O)C(O)C3O)C2O)OC(CO)C(OC2OC(C)C(O)C(O)C2O)C1OC1OC(CO)C(O)C(O)C1OC1OC(C)C(O)C(O)C1O (stereo not drawn) [LNDFH I, lacto-N-difucohexaose I] |  |  | 6.3 mM and 6.29 mM | found to bind | binding to H177A-P[8] mutant [5]: significant loss of binding to the glycan; STD NMR signal with GST (negative control) [6]: did not show significant signal intensities; binding to K168A-P[8] mutant [7]: retained binding to the glycan; binding to R154A-P[8] mutant [8]: significant loss of binding to the glycan; binding to D186A-P[8] mutant [9]: significant loss of binding to the glycan; binding to D79A-P[8] mutant [10]: retained binding to the glycan; binding to T78A-P[8] mutant [11]: retained binding to the glycan
CC(=O)N[C@H]1C(O)O[C@H](CO)[C@@H](O)[C@@H]1O[C@@H]1O[C@H](CO)[C@H](O)[C@H](O)[C@H]1O (stereo partly drawn) [lacto-N-biose] |  |  |  |  | affinity relative to H1 trisaccharide [12]: two-fold weaker affinity

From publication PMC7122821, “Molecular basis of P[II] major human rotavirus VP8* domain recognition of histo-blood group antigens” (PLoS Pathogens, 2020)
